What was measured:
[1] = Intrinsic permeability across Caco-2 cell monolayers; details: human
[2] = biological target: T1, Vascular endothelial growth factor receptor 2 (Homo sapiens, UniProt P35968); test: Inhibition of VEGFR2 by cell-based assay; format: functional
[3] = biological target: T1, Vascular endothelial growth factor receptor 2; test: Inhibition of VEGFR2 by HTRF assay
[4] = biological target: Vascular endothelial growth factor receptor 1 (Homo sapiens, UniProt P17948); test: Inhibition of VEGFR1 by HTRF assay
Sequence of Vascular endothelial growth factor receptor 1 (P17948 whole entry, looked up): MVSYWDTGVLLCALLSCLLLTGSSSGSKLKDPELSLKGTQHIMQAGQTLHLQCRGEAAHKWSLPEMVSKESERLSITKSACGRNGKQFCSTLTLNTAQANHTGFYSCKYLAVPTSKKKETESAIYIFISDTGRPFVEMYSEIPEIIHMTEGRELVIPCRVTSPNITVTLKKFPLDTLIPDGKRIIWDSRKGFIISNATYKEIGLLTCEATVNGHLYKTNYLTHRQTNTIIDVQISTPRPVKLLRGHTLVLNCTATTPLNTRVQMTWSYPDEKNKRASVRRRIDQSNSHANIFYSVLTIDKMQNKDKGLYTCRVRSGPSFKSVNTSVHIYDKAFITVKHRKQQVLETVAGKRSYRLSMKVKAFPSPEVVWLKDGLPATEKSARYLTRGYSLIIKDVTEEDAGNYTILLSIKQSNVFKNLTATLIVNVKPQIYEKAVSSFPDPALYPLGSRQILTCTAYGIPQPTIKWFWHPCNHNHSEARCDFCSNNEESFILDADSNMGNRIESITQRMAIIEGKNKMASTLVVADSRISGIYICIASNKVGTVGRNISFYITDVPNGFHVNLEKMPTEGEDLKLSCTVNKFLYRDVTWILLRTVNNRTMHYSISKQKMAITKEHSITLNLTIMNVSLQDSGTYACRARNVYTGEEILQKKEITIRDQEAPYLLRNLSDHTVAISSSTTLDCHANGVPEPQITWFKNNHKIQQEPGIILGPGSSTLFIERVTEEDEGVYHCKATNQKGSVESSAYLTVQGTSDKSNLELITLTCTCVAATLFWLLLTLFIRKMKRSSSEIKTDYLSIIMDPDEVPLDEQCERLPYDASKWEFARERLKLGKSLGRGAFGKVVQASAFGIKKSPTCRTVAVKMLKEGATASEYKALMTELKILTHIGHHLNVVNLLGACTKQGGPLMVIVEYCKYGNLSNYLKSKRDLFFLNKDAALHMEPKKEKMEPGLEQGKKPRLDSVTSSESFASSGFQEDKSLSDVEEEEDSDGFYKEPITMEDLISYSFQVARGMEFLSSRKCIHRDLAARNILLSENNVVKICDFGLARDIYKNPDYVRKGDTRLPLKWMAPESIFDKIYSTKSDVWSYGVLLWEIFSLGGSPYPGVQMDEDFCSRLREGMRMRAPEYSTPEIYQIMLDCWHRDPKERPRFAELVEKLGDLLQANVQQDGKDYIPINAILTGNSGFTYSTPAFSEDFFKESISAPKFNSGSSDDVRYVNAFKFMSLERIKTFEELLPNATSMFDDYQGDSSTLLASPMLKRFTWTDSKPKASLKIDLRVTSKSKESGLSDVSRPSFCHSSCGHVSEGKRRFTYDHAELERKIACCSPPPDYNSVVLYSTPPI

T1 sequence (P35968 whole entry): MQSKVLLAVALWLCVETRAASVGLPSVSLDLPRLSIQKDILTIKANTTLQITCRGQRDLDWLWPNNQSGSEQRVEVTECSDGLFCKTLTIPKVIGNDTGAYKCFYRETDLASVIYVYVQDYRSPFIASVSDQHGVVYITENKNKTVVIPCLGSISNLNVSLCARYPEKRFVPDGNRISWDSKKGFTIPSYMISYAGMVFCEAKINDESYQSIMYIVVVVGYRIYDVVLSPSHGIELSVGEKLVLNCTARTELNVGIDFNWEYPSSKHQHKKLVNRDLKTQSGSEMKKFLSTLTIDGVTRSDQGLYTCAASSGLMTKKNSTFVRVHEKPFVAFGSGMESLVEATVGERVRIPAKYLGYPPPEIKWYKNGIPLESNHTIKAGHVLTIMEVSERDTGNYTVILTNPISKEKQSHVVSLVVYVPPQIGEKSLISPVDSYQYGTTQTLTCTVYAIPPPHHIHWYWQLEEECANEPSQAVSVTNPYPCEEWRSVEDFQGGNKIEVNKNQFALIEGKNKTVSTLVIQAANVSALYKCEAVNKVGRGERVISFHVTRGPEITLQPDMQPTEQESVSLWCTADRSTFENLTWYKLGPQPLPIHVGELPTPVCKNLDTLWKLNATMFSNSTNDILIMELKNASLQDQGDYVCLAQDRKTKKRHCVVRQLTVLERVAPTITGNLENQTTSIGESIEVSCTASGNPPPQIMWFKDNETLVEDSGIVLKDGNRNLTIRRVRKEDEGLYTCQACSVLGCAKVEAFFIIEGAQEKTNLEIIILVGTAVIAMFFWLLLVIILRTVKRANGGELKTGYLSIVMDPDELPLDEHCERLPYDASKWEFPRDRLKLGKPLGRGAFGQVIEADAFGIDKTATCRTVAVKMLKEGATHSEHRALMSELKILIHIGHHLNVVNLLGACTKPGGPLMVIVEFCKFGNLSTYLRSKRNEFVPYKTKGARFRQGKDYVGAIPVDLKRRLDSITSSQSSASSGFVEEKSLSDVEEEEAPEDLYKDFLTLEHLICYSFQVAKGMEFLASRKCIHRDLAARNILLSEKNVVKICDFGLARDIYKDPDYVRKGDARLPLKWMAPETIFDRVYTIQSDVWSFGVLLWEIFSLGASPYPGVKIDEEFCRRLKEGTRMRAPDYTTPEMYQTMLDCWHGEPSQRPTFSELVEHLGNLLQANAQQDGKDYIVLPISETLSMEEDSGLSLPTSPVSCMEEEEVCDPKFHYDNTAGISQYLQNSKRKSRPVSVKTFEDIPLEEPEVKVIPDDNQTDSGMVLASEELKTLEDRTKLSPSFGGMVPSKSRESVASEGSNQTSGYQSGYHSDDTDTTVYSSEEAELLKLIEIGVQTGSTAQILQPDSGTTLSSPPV

Row | Structure (SMILES) | Papp [1] [×10⁻⁶ cm/s] | IC50 [2] [nM] | IC50 [3] [nM] | IC50 [4] [nM]
1 | Cc1noc(NCc2ccncc2)c1C(=O)Nc1cccc(Cl)c1 | – | > 10000 | > 10000 | > 10000
2 | Cn1cnc(NCc2ccncc2)c1C(=O)Nc1ccc(Oc2ccccc2)cc1 | – | > 10000 | 4290 | > 10000
3 | Cn1ncc(NCc2ccncc2)c1C(=O)Nc1cccc(C(F)(F)F)c1 | – | 1340 | 750 | 1060
4 | Cc1noc(NCc2ccncc2)c1C(=O)Nc1ccc(C(C)(C)C)cc1 | – | 210 | 280 | 420
5 | Cc1noc(NCc2ccncc2)c1C(=O)Nc1ccc(C(C)C)cc1 | – | 350 | 440 | 760
6 | Cn1ncc(NCc2cccnc2)c1C(=O)Nc1ccc(C(F)(F)F)cc1 | – | > 10000 | > 10000 | > 10000
7 | Cc1noc(NCc2ccncc2)c1C(=O)Nc1ccc(Cc2ccccc2)cc1 | – | > 10000 | 5800 | > 10000
8 | Cc1noc(NCc2ccncc2)c1C(=O)Nc1cnc2ccccc2c1 | – | 3540 | 940 | 1220
9 | Cn1ncc(NCc2ccncc2)c1C(=O)Nc1cccc(OC(F)(F)F)c1 | – | 470 | 2060 | 2440
10 | COc1ccc(NC(=O)c2c(C)noc2NCc2ccncc2)cc1OC | – | > 10000 | 1190 | 3350
11 | Cn1ncc(NCc2ccncc2)c1C(=O)Nc1ccc(Cl)cc1 | – | 1000 | 4580 | > 10000
12 | CC(C)c1ccc(NC(=O)c2c(NCc3ccncc3)cnn2C)cc1 | – | 88 | 290 | 440
13 | Cn1ncc(NCc2ccncc2)c1C(=O)Nc1ccc(-c2ccccc2)cc1 | – | > 10000 | > 10000 | > 10000
14 | Cn1ncc(NCc2ccncc2)c1C(=O)Nc1ccc(Cc2ccccc2)cc1 | – | > 10000 | 5570 | > 10000
15 | Cn1ncc(NCc2ccncc2)c1C(=O)Nc1ccc(C(F)(F)F)c(Cl)c1 | – | 79 | 210 | 440
16 | Cn1ncc(NCc2ccncc2)c1C(=O)Nc1cc(C(F)(F)F)cc(C(F)(F)F)c1 | – | 210 | 1120 | 1230
17 | Cc1noc(NCc2ccncc2)c1C(=O)Nc1cccc(C(F)(F)F)c1 | – | 2270 | 1560 | 1690
18 | Cn1cnc(NCc2ccncc2)c1C(=O)Nc1cccc(C(F)(F)F)c1 | – | 550 | 650 | 790
19 | Cn1cnc(NCc2ccncc2)c1C(=O)Nc1ccc2c(c1)CN=N2 | – | > 10000 | 6020 | > 10000
20 | Cc1ccc(NC(=O)c2c(NCc3ccncc3)ncn2C)c(F)c1 | – | 1250 | 840 | 1350
21 | Cc1noc(NCc2ccncc2)c1C(=O)Nc1ccc(Oc2ccccc2)cc1 | – | > 10000 | > 10000 | > 10000
22 | Cn1cnc(NCc2ccncc2)c1C(=O)Nc1ccc(Cc2ccccc2)cc1 | – | > 10000 | 5570 | > 10000
23 | Cn1cnc(NCc2ccncc2)c1C(=O)Nc1cc(C(F)(F)F)cc(C(F)(F)F)c1 | – | 150 | 740 | 1060
24 | Cn1ncc(NCc2ccncc2)c1C(=O)Nc1cccc(Cl)c1 | – | > 10000 | 2060 | 3220
25 | Cc1noc(NCc2ccncc2)c1C(=O)Nc1ccc(-c2ccccc2)cc1 | – | > 10000 | > 10000 | > 10000

Results, then the molecule that gave them:

Row | Papp [1] [×10⁻⁶ cm/s] | IC50 [2] [nM] | IC50 [3] [nM] | IC50 [4] [nM] | Structure (SMILES)
26 | 2.88 | – | – | – | O=C(Nc1cnc2ccccc2c1)c1ccccc1NCc1ccncc1
27 | – | > 10000 | 3770 | > 10000 | Cn1cnc(NCc2ccncc2)c1C(=O)Nc1ccc(-c2ccccc2)cc1
28 | – | 920 | 230 | 350 | Cn1cnc(NCc2ccncc2)c1C(=O)Nc1cnc2ccccc2c1
29 | – | 110 | 580 | 690 | Cn1cnc(NCc2ccncc2)c1C(=O)Nc1ccc(C(F)(F)F)c(C(F)(F)F)c1
30 | – | > 10000 | 5730 | > 10000 | Cn1cnc(NCc2ccncc2)c1C(=O)Nc1ccc2cn[nH]c2c1
31 | – | > 10000 | > 10000 | > 10000 | Cn1ncc(NCc2cccnc2)c1C(=O)Nc1cccc(C(F)(F)F)c1
32 | – | 130 | 840 | 920 | Cn1ncc(NCc2ccncc2)c1C(=O)Nc1ccc(C(F)(F)F)c(C(F)(F)F)c1
33 | – | 130 | 280 | 310 | Cn1ncc(NCc2ccncc2)c1C(=O)Nc1ccc(C(F)(F)F)cc1
34 | – | 930 | 970 | 1250 | Cc1noc(NCc2ccncc2)c1C(=O)Nc1ccc(Cl)c(Cl)c1
35 | – | 590 | 870 | 1440 | Cc1cc(NC(=O)c2c(C)noc2NCc2ccncc2)ccc1C(F)(F)F
36 | – | > 10000 | > 10000 | > 10000 | Cn1ncc(NCc2ccncc2)c1C(=O)Nc1ccc(Oc2ccccc2)cc1
37 | – | 91 | 350 | 510 | COc1ccc(NC(=O)c2c(NCc3ccncc3)cnn2C)cc1OC
38 | – | 9600 | 1980 | 6000 | Cn1cnc(NCc2ccncc2)c1C(=O)Nc1ccc(C(F)(F)F)cc1
39 | – | 350 | 760 | 1110 | Cn1cnc(NCc2ccncc2)c1C(=O)Nc1cccc(OC(F)(F)F)c1
40 | – | 180 | 370 | 560 | Cc1noc(NCc2ccncc2)c1C(=O)Nc1ccc(C(F)(F)F)cc1
41 | – | > 10000 | > 10000 | > 10000 | Cn1cnc(NCc2cccnc2)c1C(=O)Nc1cccc(C(F)(F)F)c1
42 | – | > 10000 | > 10000 | > 10000 | Cn1cnc(NCc2cccnc2)c1C(=O)Nc1ccc(C(F)(F)F)cc1
43 | – | 110 | 1150 | 1430 | Cn1cnc(NCc2ccncc2)c1C(=O)Nc1ccc(OC(F)(F)F)cc1
44 | – | 740 | 650 | 1120 | Cn1cnc(NCc2ccncc2)c1C(=O)NCc1ccc2c(c1)OCO2
45 | – | 1140 | 280 | 520 | Cn1ncc(NCc2ccncc2)c1C(=O)Nc1cnc2ccccc2c1
46 | – | 320 | 560 | 1110 | Cc1noc(NCc2ccncc2)c1C(=O)Nc1ccc(C(F)(F)F)c(Cl)c1
47 | – | > 10000 | 4230 | > 10000 | Cc1noc(NCc2ccncc2)c1C(=O)Nc1ccc(C(F)(F)F)c(C(F)(F)F)c1
48 | 5.4 | – | – | – | Cn1ncc([N+](=O)[O-])c1C(=O)O
49 | – | > 10000 | 2060 | 3220 | Cn1cnc(NCc2ccncc2)c1C(=O)Nc1cccc(Cl)c1
50 | – | 102 | 660 | 930 | Cc1ccc(NC(=O)c2c(NCc3ccncc3)cnn2C)cc1C(F)(F)F
51 | – | 910 | 2120 | 3550 | Cc1noc(NCc2ccncc2)c1C(=O)Nc1ccc(OC(F)(F)F)cc1
52 | – | 110 | 1130 | 1360 | Cn1ncc(NCc2ccncc2)c1C(=O)Nc1ccc(Cl)c(C(F)(F)F)c1
53 | – | > 10000 | > 10000 | > 10000 | Cc1noc(NCc2ccncc2)c1C(=O)Nc1ccc(Cl)cc1

From ChEMBL document CHEMBL1139078, “ortho-Substituted azoles as selective and dual inhibitors of VEGF receptors 1 and 2” (Bioorg Med Chem Lett, 2007)
